Reference: patent publication US20240341301A1 (The Regents of the University of Michigan, priority 2023, published 2024)

Key:
[1] = tested on: HL-1 murine cardiomyocytes; assay: HL-1 cardiomyocytes in HTK under normoxic or hypoxic conditions, Western blot; format: cell-based, mouse; conditions: for HO1 protein abundance / NRF2 / SOD1 protein abundance: normoxic and hypoxic conditions
Procedure: HL-1 murine cardiomyocytes cells (Sigma-Aldrich, SCC065) were cultured in Claycomb Medium (Sigma-Aldrich, 51800C). […] The medium was then changed to cold HTK solution and incubated in an hypoxic incubation chamber (Stem cell technologies). The chamber cold hypoxic conditions consist premixed of 1% Oxygen and 5% Carbon dioxide gas (Cryogenic gases, Detroit MI) with cell culture at 4° C. for 2 hours. After cold preservation culture, the medium was changed to 37° C. DMEM at atmospheric conditions and cells were incubated for an additional 2 hours. Cell lysates were then collected for Western blot analysis.

murine donor hearts [2] = assay: Murine ex-vivo heart perfusion after cold preservation; parameters: species or system mouse; conditions: for ex vivo donor heart contractility / ex vivo donor heart relaxation: HDAC inhibitor in HTK, 16 hours cold preservation
Procedure: (§1) Male and female WT or Irg1^−/− mice (Jackson laboratories, Bar Harbor, ME) were anesthetized intraperitoneally with 80 mg/kg ketamine and 5 mg/kg xylazine, anticoagulated with heparin (2,000 U/kg iv), and the heart was rapidly exposed through a sternal incision. The aorta was cannulated and retrograde perfused in-situ with HTK solution±HDAC inhibitors. After cannulation, the heart dissected free, the left atrium was opened. For 4-OI (Cayman Chemical, 25374) experiments, donor mice were treated 4-OI (dissolved in 40% β-Cyclodextrin, 50 mg/kg intraperitoneally) or vehicle control (40% β-Cyclodextrin intraperitoneally) 2 hours prior to donor heart procurement. After dissection, the heart was stored at 4° C. with HTK or HTK with VPA for a pre-designated duration. The hearts were then mounted on a Radnoti mouse Langendorff apparatus (ADInstruments inc., Colorado Springs, CO) in constant-pressure mode (˜70 mmHg) with a modified Krebs-Henseleit buffer (KHB; in mM: 118 NaCl, 4.7 KCl, 1.25 CaCl2), 1.66 MgSO4, 24.88 NaHCO3, 1.18 KH2PO4, 5.55 glucose, and 2.0 Na-pyruvate). A balloon was placed in the LV through the left atrium and left ventricular diastolic pressure was set to ˜8 mmHg at initiation. The heart was perfused with modified Krebs-Henseleit buffer for 30 min to stabilize and then hemodynamics measurements were recorded. Myocardial temperature was maintained at 37° C. LabChart software (ADInstruments inc., Colorado Springs, CO) was used to record ventricular function, perfusion pressures, cardiac chamber temperature and myocardial temperature. After perfusing the heart for 60 minutes, the heart was removed from the ex-vivo perfusion apparatus for specimen collection. Tissue was immediately placed in liquid N2 or treated with 4% formalin.

murine donor hearts [3] = assay: Murine donor heart tissue staining and Western blot (oxidative stress, antioxidant proteins, cell death); parameters: species or system mouse; conditions: donor mice treated with 4-OI
Procedure: as §1

H9C2 cardioblast = assay: Doxorubicin-treated H9C2 cardioblast; format: cell-based; conditions: 1 μM doxorubicin
Procedure: FIG. 18. FIG. 4. […] The doxorubicin-induced cell death were evaluated by cleaved caspase 3 using western blot.
FIG. 19. FIG. 4. […] The 5-hmC level were detected using immunostaining.

[4] = cited from earlier work
Irg1 = Irg1 mRNA transcript expression in preserved murine donor hearts; parameters: species or system mouse; conditions: 16 hours preservation without reperfusion and during ex vivo perfusion
Procedure: as §1

mice = assay: Doxorubicin-induced cardiotoxicity in mice; format: in vivo, mouse; conditions: 5 mg/Kg doxorubicin for 5 weeks, I.P. every 3.5 days
Procedure: FIG. 16. […] 6-week mice were treated with 5 mg/Kg doxorubicin for 5 weeks. […] There are improved ejection fraction, stroke volume, and increased heart and lung weight in itaconate-treated groups compared to saline-treated groups.
FIG. 17. […] 6-week mice were treated with 5 mg/Kg doxorubicin for 5 weeks.

[5] = donor mice treated 4-OI 50 mg/kg intraperitoneally 2 hours prior to procurement, 16 hours of preservation, ex vivo perfusion
[6] = compared to saline-treated groups

Compound	HO1 protein abundance [1]	NRF2 [1]	SOD1 protein abundance [1]	water solubility [4]	ex vivo donor heart contractility (murine donor hearts [2])	ex vivo donor heart relaxation (murine donor hearts [2])	Irg1 transcript expression (Irg1)	also measured
C=C(CC(=O)OCCCCCCCC)C(=O)O [4-OI, 4-octyl itaconate]	enhanced	no changes	enhanced					cardiac contractility (murine donor hearts [2]; [5]): improved; cardiac relaxation (murine donor hearts [2]; [5]): improved; NRF2 nuclear translocation in cardiac tissue (murine donor hearts [3]): increased; oxidative DNA damage (8-OHdG fluorescence) (murine donor hearts [3]): reduced
COc1cccc2c1C(=O)c1c(O)c3c(c(O)c1C2=O)C[C@@](O)(C(=O)CO)C[C@@H]3O[C@H]1C[C@H](N)[C@H](O)[C@H](C)O1 [Doxorubicin, doxorubicin]								5-hmC level (H9C2 cardioblast; immunostaining): induces accumulation
O=C(CCCCCCC(=O)Nc1ccccc1)NO [SAHA, Suberoylanilide hydroxamic acid]				poorly water soluble	improved	improved	increased	
CC(/C=C/C(=O)NO)=C\[C@@H](C)C(=O)c1ccc(N(C)C)cc1 [TSA, Trichostatin A]				poorly water soluble	improved	improved	increased	
C=C(CC(=O)O)C(=O)O [itaconate]	enhanced	no changes	enhanced					cardiomyocyte apoptosis (cleaved caspase 3, western blot) (H9C2 cardioblast; 2 mM itaconate, 18 hours): reduced; doxorubicin induced 5-hmC accumulation (H9C2 cardioblast; 2 mM itaconate, immunostaining): reduce; serum cTnI level (mice): reduced; ejection fraction (mice; [6]): improved; heart and lung weight (mice; [6]): increased; stroke volume (mice; [6]): improved; antioxidant expression (HO1, SOD1) ([1]; itaconate 10 mM in HTK, normoxic (20% O2) and hypoxic (1% O2), 2 hours): increased; murine donor heart function (murine donor hearts [2]; after 16 hours of storage): improved
